In the NIST ThermoML archive (doi:10.1016/j.jct.2017.05.001):
± gives the expanded uncertainty stated by the source.

Assay: wn = mass fraction of the nth substance listed
Details: Liquid; for mass density: Vibrating tube method

CN(C)CCO [2-(N,N-dimethylamino)ethanol] + O
mass density (333.15 K, 130000 kPa, w1 = 0.202): 1018.6 ± 0.7 kg/m3 | mass density (333.15 K, 130000 kPa, w1 = 0.3005): 1012.4 ± 0.7 kg/m3 | mass density (333.15 K, 130000 kPa, w1 = 0.3995): 1005.5 ± 0.7 kg/m3 | mass density (333.15 K, 140000 kPa, w1 = 0.1005): 1028.8 ± 0.7 kg/m3 | mass density (333.15 K, 140000 kPa, w1 = 0.202): 1021.9 ± 0.7 kg/m3 | mass density (333.15 K, 140000 kPa, w1 = 0.3005): 1015.4 ± 0.7 kg/m3 | mass density (333.15 K, 140000 kPa, w1 = 0.3995): 1008.7 ± 0.7 kg/m3 | viscosity (353.15 K, 100 kPa, Concentric cylinders viscometry, w1 = 0.1): 0.475 ± 0.011 mPa·s | viscosity (353.15 K, 100 kPa, Concentric cylinders viscometry, w1 = 0.2): 0.618 ± 0.013 mPa·s | viscosity (353.15 K, 100 kPa, Concentric cylinders viscometry, w1 = 0.3): 0.809 ± 0.017 mPa·s | viscosity (353.15 K, 100 kPa, Concentric cylinders viscometry, w1 = 0.4): 1.044 ± 0.022 mPa·s | viscosity (353.15 K, 100 kPa, Falling or rolling sphere viscometry, w1 = 0.1005): 0.4624 ± 0.015 mPa·s | viscosity (353.15 K, 100 kPa, Falling or rolling sphere viscometry, w1 = 0.202): 0.6055 ± 0.02 mPa·s | viscosity (353.15 K, 100 kPa, Falling or rolling sphere viscometry, w1 = 0.3005): 0.8063 ± 0.026 mPa·s | viscosity (353.15 K, 100 kPa, Falling or rolling sphere viscometry, w1 = 0.3995): 1.05 ± 0.034 mPa·s | mass density (353.15 K, 100 kPa, w1 = 0.1005): 965.2 ± 0.7 kg/m3 | mass density (353.15 K, 100 kPa, w1 = 0.202): 958.1 ± 0.7 kg/m3 | mass density (353.15 K, 100 kPa, w1 = 0.3005): 950.2 ± 0.7 kg/m3 | mass density (353.15 K, 100 kPa, w1 = 0.3995): 941.1 ± 0.7 kg/m3 | mass density (353.15 K, 500 kPa, w1 = 0.1005): 965.3 ± 0.7 kg/m3 | mass density (353.15 K, 500 kPa, w1 = 0.202): 958.1 ± 0.7 kg/m3 | mass density (353.15 K, 500 kPa, w1 = 0.3005): 950.3 ± 0.7 kg/m3 | mass density (353.15 K, 500 kPa, w1 = 0.3995): 941.2 ± 0.7 kg/m3 | mass density (353.15 K, 1000 kPa, w1 = 0.1005): 965.6 ± 0.7 kg/m3 | mass density (353.15 K, 1000 kPa, w1 = 0.202): 958.4 ± 0.7 kg/m3 | mass density (353.15 K, 1000 kPa, w1 = 0.3005): 950.6 ± 0.7 kg/m3 | mass density (353.15 K, 1000 kPa, w1 = 0.3995): 941.4 ± 0.7 kg/m3 | mass density (353.15 K, 2000 kPa, w1 = 0.1005): 966 ± 0.7 kg/m3 | mass density (353.15 K, 2000 kPa, w1 = 0.202): 958.8 ± 0.7 kg/m3 | mass density (353.15 K, 2000 kPa, w1 = 0.3005): 951 ± 0.7 kg/m3 | mass density (353.15 K, 2000 kPa, w1 = 0.3995): 941.9 ± 0.7 kg/m3 | viscosity (353.15 K, 5000 kPa, Falling or rolling sphere viscometry, w1 = 0.1005): 0.4644 ± 0.015 mPa·s | viscosity (353.15 K, 5000 kPa, Falling or rolling sphere viscometry, w1 = 0.202): 0.6064 ± 0.02 mPa·s | viscosity (353.15 K, 5000 kPa, Falling or rolling sphere viscometry, w1 = 0.3005): 0.812 ± 0.027 mPa·s | viscosity (353.15 K, 5000 kPa, Falling or rolling sphere viscometry, w1 = 0.3995): 1.059 ± 0.035 mPa·s | mass density (353.15 K, 5000 kPa, w1 = 0.1005): 967.3 ± 0.7 kg/m3 | mass density (353.15 K, 5000 kPa, w1 = 0.202): 960.1 ± 0.7 kg/m3 | mass density (353.15 K, 5000 kPa, w1 = 0.3005): 952.4 ± 0.7 kg/m3 | mass density (353.15 K, 5000 kPa, w1 = 0.3995): 943.3 ± 0.7 kg/m3 | viscosity (353.15 K, 10000 kPa, Falling or rolling sphere viscometry, w1 = 0.1005): 0.4671 ± 0.015 mPa·s | viscosity (353.15 K, 10000 kPa, Falling or rolling sphere viscometry, w1 = 0.202): 0.6135 ± 0.02 mPa·s | viscosity (353.15 K, 10000 kPa, Falling or rolling sphere viscometry, w1 = 0.3005): 0.8213 ± 0.027 mPa·s | viscosity (353.15 K, 10000 kPa, Falling or rolling sphere viscometry, w1 = 0.3995): 1.074 ± 0.035 mPa·s | mass density (353.15 K, 10000 kPa, w1 = 0.1005): 969.5 ± 0.7 kg/m3 | mass density (353.15 K, 10000 kPa, w1 = 0.202): 962.4 ± 0.7 kg/m3 | mass density (353.15 K, 10000 kPa, w1 = 0.3005): 954.7 ± 0.7 kg/m3 | mass density (353.15 K, 10000 kPa, w1 = 0.3995): 945.8 ± 0.7 kg/m3 | viscosity (353.15 K, 15000 kPa, Falling or rolling sphere viscometry, w1 = 0.1005): 0.4699 ± 0.015 mPa·s | viscosity (353.15 K, 15000 kPa, Falling or rolling sphere viscometry, w1 = 0.202): 0.6195 ± 0.02 mPa·s | viscosity (353.15 K, 15000 kPa, Falling or rolling sphere viscometry, w1 = 0.3005): 0.8321 ± 0.027 mPa·s | viscosity (353.15 K, 15000 kPa, Falling or rolling sphere viscometry, w1 = 0.3995): 1.09 ± 0.036 mPa·s | mass density (353.15 K, 15000 kPa, w1 = 0.1005): 971.6 ± 0.7 kg/m3 | mass density (353.15 K, 15000 kPa, w1 = 0.202): 964.5 ± 0.7 kg/m3 | mass density (353.15 K, 15000 kPa, w1 = 0.3005): 956.9 ± 0.7 kg/m3 | mass density (353.15 K, 15000 kPa, w1 = 0.3995): 948.1 ± 0.7 kg/m3 | viscosity (353.15 K, 20000 kPa, Falling or rolling sphere viscometry, w1 = 0.1005): 0.472 ± 0.015 mPa·s | viscosity (353.15 K, 20000 kPa, Falling or rolling sphere viscometry, w1 = 0.202): 0.6229 ± 0.02 mPa·s | viscosity (353.15 K, 20000 kPa, Falling or rolling sphere viscometry, w1 = 0.3005): 0.8407 ± 0.028 mPa·s | viscosity (353.15 K, 20000 kPa, Falling or rolling sphere viscometry, w1 = 0.3995): 1.105 ± 0.036 mPa·s | mass density (353.15 K, 20000 kPa, w1 = 0.1005): 973.8 ± 0.7 kg/m3 | mass density (353.15 K, 20000 kPa, w1 = 0.202): 966.7 ± 0.7 kg/m3 | mass density (353.15 K, 20000 kPa, w1 = 0.3005): 959.1 ± 0.7 kg/m3 | mass density (353.15 K, 20000 kPa, w1 = 0.3995): 950.5 ± 0.7 kg/m3 | viscosity (353.15 K, 25000 kPa, Falling or rolling sphere viscometry, w1 = 0.1005): 0.4744 ± 0.016 mPa·s | viscosity (353.15 K, 25000 kPa, Falling or rolling sphere viscometry, w1 = 0.202): 0.6275 ± 0.021 mPa·s | viscosity (353.15 K, 25000 kPa, Falling or rolling sphere viscometry, w1 = 0.3005): 0.8485 ± 0.028 mPa·s | viscosity (353.15 K, 25000 kPa, Falling or rolling sphere viscometry, w1 = 0.3995): 1.118 ± 0.037 mPa·s | viscosity (353.15 K, 30000 kPa, Falling or rolling sphere viscometry, w1 = 0.1005): 0.4772 ± 0.016 mPa·s | viscosity (353.15 K, 30000 kPa, Falling or rolling sphere viscometry, w1 = 0.202): 0.6338 ± 0.021 mPa·s | viscosity (353.15 K, 30000 kPa, Falling or rolling sphere viscometry, w1 = 0.3005): 0.856 ± 0.028 mPa·s | viscosity (353.15 K, 30000 kPa, Falling or rolling sphere viscometry, w1 = 0.3995): 1.135 ± 0.037 mPa·s | mass density (353.15 K, 30000 kPa, w1 = 0.1005): 978 ± 0.7 kg/m3 | mass density (353.15 K, 30000 kPa, w1 = 0.202): 971 ± 0.7 kg/m3 | mass density (353.15 K, 30000 kPa, w1 = 0.3005): 963.4 ± 0.7 kg/m3 | mass density (353.15 K, 30000 kPa, w1 = 0.3995): 954.9 ± 0.7 kg/m3 | viscosity (353.15 K, 40000 kPa, Falling or rolling sphere viscometry, w1 = 0.1005): 0.4824 ± 0.016 mPa·s | viscosity (353.15 K, 40000 kPa, Falling or rolling sphere viscometry, w1 = 0.202): 0.6411 ± 0.021 mPa·s | viscosity (353.15 K, 40000 kPa, Falling or rolling sphere viscometry, w1 = 0.3005): 0.875 ± 0.029 mPa·s | viscosity (353.15 K, 40000 kPa, Falling or rolling sphere viscometry, w1 = 0.3995): 1.167 ± 0.038 mPa·s | mass density (353.15 K, 40000 kPa, w1 = 0.1005): 982 ± 0.7 kg/m3 | mass density (353.15 K, 40000 kPa, w1 = 0.202): 975 ± 0.7 kg/m3 | mass density (353.15 K, 40000 kPa, w1 = 0.3005): 967.5 ± 0.7 kg/m3 | mass density (353.15 K, 40000 kPa, w1 = 0.3995): 959.2 ± 0.7 kg/m3 | mass density (353.15 K, 50000 kPa, w1 = 0.1005): 986 ± 0.7 kg/m3 | mass density (353.15 K, 50000 kPa, w1 = 0.202): 978.9 ± 0.7 kg/m3 | mass density (353.15 K, 50000 kPa, w1 = 0.3005): 971.6 ± 0.7 kg/m3 | mass density (353.15 K, 50000 kPa, w1 = 0.3995): 963.3 ± 0.7 kg/m3 | viscosity (353.15 K, 60000 kPa, Falling or rolling sphere viscometry, w1 = 0.1005): 0.491 ± 0.016 mPa·s | viscosity (353.15 K, 60000 kPa, Falling or rolling sphere viscometry, w1 = 0.202): 0.659 ± 0.022 mPa·s | viscosity (353.15 K, 60000 kPa, Falling or rolling sphere viscometry, w1 = 0.3005): 0.9078 ± 0.03 mPa·s | viscosity (353.15 K, 60000 kPa, Falling or rolling sphere viscometry, w1 = 0.3995): 1.225 ± 0.04 mPa·s | mass density (353.15 K, 60000 kPa, w1 = 0.1005): 989.9 ± 0.7 kg/m3 | mass density (353.15 K, 60000 kPa, w1 = 0.202): 982.7 ± 0.7 kg/m3
